| SMILES | melting point [°C] |
| --- | --- |
| Cc1cn(-c2nc(Nc3cccc(NS(C)(=O)=O)c3)nc3[nH]cnc23)cn1 [Example 13, N-{3-[6-(4-Methyl-imidazol-1-yl)-9H-purin-2-ylamino]-phenyl}-methanesulfonamide] | 298 to 301 |
| CC(C)Nc1nc(Nc2cccc(NS(C)(=O)=O)c2)nc2[nH]cnc12 [Example 2, N-[3-(6-Isopropylamino-9H-purin-2-ylamino)-phenyl]-methanesulfonamide] | 161 to 165 |
| CS(=O)(=O)Nc1cccc(Nc2nc(N3CCN(c4ccncc4)CC3)c3nc[nH]c3n2)c1 [Example 7, N-{3-[6-(4-Pyridin-4-yl-piperazin-1-yl)-9H-purin-2-ylamino]-phenyl}-methanesulfonamide] | 227 to 230 |
| CS(=O)(=O)Nc1cccc(Nc2nc(NC3CCC3)c3nc[nH]c3n2)c1 [Example 1, N-[3-(6-Cyclobutylamino-9H-purin-2-ylamino)-phenyl]-methanesulfonamide] | 142 to 146 |
| CS(=O)(=O)Nc1cccc(Nc2nc(NCc3ccccc3CO)c3nc[nH]c3n2)c1 [Example 93, N-{3-[6-(2-Hydroxymethyl-benzylamino)-9H-purin-2-ylamino]-phenyl}-methanesulfonamide] | 145 to 148 |
| CC[C@H](Nc1nc(Nc2cccc(NS(C)(=O)=O)c2)nc2[nH]cnc12)c1ccccc1 [Example 92, N-{3-[6-((S)-1-Phenyl-propylamino)-9H-purin-2-ylamino]-phenyl}-methanesulfonamide] | 138 to 141 |
| CS(=O)(=O)Nc1cccc(Nc2nc(NCCc3ccccn3)c3nc[nH]c3n2)c1 [Example 10, N-{3-[6-(2-Pyridin-2-yl-ethylamino)-9H-purin-2-ylamino]-phenyl}-methanesulfonamide] | 199 to 202 |
| C[C@H](Nc1nc(Nc2cccc(NS(C)(=O)=O)c2)nc2[nH]ccc12)C(C)(C)C [Example 51, N-{3-[4-((S)-1,2,2-Trimethyl-propylamino)-7H-pyrrolo[2,3-d]pyrimidin-2-ylamino]-phenyl}-methanesulfonamide] | 128 to 132 |
| O=S(=O)(Nc1cccc(Nc2nc(NC3CCCC3)c3nc[nH]c3n2)c1)C(F)(F)F [Example 27, N-[3-(6-Cyclopentylamino-9H-purin-2-ylamino)-phenyl]-C,C,C-trifluoro-methanesulfonamide] | 243 to 246 |
| CN(C)CCNc1nc(Nc2cccc(NS(C)(=O)=O)c2)nc2[nH]cnc12 [Example 6, N-(3-{6-[2-Dimethylamino-ethylamino]-9H-purin-2-ylamino]-phenyl}-methanesulfonamide] | 191 to 195 |
| CS(=O)(=O)Nc1cccc(Nc2nc(NCc3cccc(O)c3)c3nc[nH]c3n2)c1 [Example 73, N-{3-[6-(3-Hydroxy-benzylamino)-9H-purin-2-ylamino]-phenyl}-methanesulfonamide] | 221 to 225 |
| CS(=O)(=O)Nc1cccc(Nc2nc(NCCc3c[nH]cn3)c3nc[nH]c3n2)c1 [Example 4, N-(3-{6-[2-(1H-Imidazol-4-yl)-ethylamino]-9H-purin-2-ylamino]-phenyl}-methanesulfonamide] | 205 to 210 |
| CS(=O)(=O)Nc1cccc(Nc2nc(NCc3ncc[nH]3)c3nc[nH]c3n2)c1 [Example 45, N-(3-{6-[(1H-Imidazol-2-ylmethyl)-amino]-9H-purin-2-ylamino}-phenyl)-methanesulfonamide] | 216 to 220 |

Source: patent publication US20080261973A1, “Sulphonamidoaniline Derivatives Being Janus Kinase Inhibitors” (Novartis AG, priority 2005, published 2008)
